Values quoted from earlier work as cited in publication PMC10482975 (Nature Communications, 2023).

Target: M2 mAChR
Settings: read-out: predicted affinity for allosteric binding; cited from earlier work

## C[N+](C)(C)CC#CCN1CCCC1=O [oxotremorine-M]
  Kd: > 1000 µM
